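Step 1: Grow cells in 96-well plates. Step 2: Expose to compound for 48 hours at 5 concentrations. Step 3: Interpolate endpoints linearly; if unreached, use highest concentration. Abbreviation: GI50, concentration required for 50% inhibition of growth.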 Active and inactive are the calls of the source. Rule as the data show it: active = GI50 up to about 1.1 µM and inactive = higher.
How the values were obtained:
Test in all cases: DTP human tumour cell line panel, 48 h
IGROV-1 = test system: IGROV-1
OVCAR-8 = test system: OVCAR-8
RXF 393 = test system: RXF 393
U-251 = test system: U-251
SW-620 = test system: SW-620
M14 = test system: M14
RPMI-8226 = test system: RPMI-8226
MDA-MB-231 = test system: MDA-MB-231
MDA-MB-435 = test system: MDA-MB-435
HT-29 = test system: HT-29
NCI-H522 = test system: NCI-H522
SF-268 = test system: SF-268
Hs-578T = test system: Hs-578T
786-0 = test system: 786-0
SK-MEL-2 = test system: SK-MEL-2
HCT-15 = test system: HCT-15
SNB-19 = test system: SNB-19
OVCAR-4 = test system: OVCAR-4
LOX IMVI = test system: LOX IMVI
HCC 2998 = test system: HCC 2998

CC(=O)Nc1ccc(/N=N\c2c(O)c(S(=O)(=O)O)cc3cc(S(=O)(=O)O)ccc23)cc1
GI50 (IGROV-1): > 100 µM (inactive) | GI50 (OVCAR-8): > 100 µM (inactive) | GI50 (RXF 393): > 100 µM (inactive) | GI50 (U-251): > 100 µM (inactive) | GI50 (SW-620): > 100 µM (inactive) | GI50 (M14): > 100 µM (inactive) | GI50 (RPMI-8226): > 100 µM (inactive) | GI50 (MDA-MB-231): > 100 µM (inactive) | GI50 (MDA-MB-435): > 100 µM (inactive) | GI50 (HT-29): > 100 µM (inactive) | GI50 (NCI-H522): > 100 µM (inactive) | GI50 (SF-268): > 100 µM (inactive) | GI50 (Hs-578T): > 100 µM (inactive) | GI50 (786-0): > 100 µM (inactive) | GI50 (SK-MEL-2): > 100 µM (inactive) | GI50 (HCT-15): > 100 µM | GI50 (SNB-19): > 100 µM (inactive) | GI50 (OVCAR-4): > 100 µM (inactive)

Nc1cccc(OCc2nc(N)nc(N)c2-c2ccc(Cl)cc2)c1
GI50 (IGROV-1): 37.3 µM (inactive) | GI50 (OVCAR-8): 43.9 µM (inactive) | GI50 (RXF 393): 60 µM (inactive) | GI50 (U-251): 64.9 µM (inactive) | GI50 (SW-620): 50.6 µM (inactive) | GI50 (M14): 60.8 µM (inactive) | GI50 (RPMI-8226): 37.8 µM (inactive) | GI50 (MDA-MB-231): > 100 µM (inactive) | GI50 (MDA-MB-435): 56.4 µM (inactive) | GI50 (HT-29): 39.4 µM (inactive) | GI50 (NCI-H522): 57.5 µM (inactive) | GI50 (SF-268): 60 µM (inactive) | GI50 (Hs-578T): 62.2 µM (inactive) | GI50 (LOX IMVI): 52.5 µM (inactive) | GI50 (786-0): 53.5 µM (inactive) | GI50 (SK-MEL-2): > 100 µM (inactive) | GI50 (HCT-15): 39.2 µM | GI50 (SNB-19): > 100 µM (inactive) | GI50 (OVCAR-4): 49.7 µM (inactive)

NS(=O)(=O)c1cc(C(=O)O)c(O)c2ccccc12
GI50 (IGROV-1): > 100 µM (inactive) | GI50 (OVCAR-8): > 100 µM (inactive) | GI50 (RXF 393): > 100 µM (inactive) | GI50 (U-251): > 100 µM (inactive) | GI50 (SW-620): > 100 µM (inactive) | GI50 (M14): > 100 µM (inactive) | GI50 (RPMI-8226): > 100 µM (inactive) | GI50 (MDA-MB-231): > 100 µM (inactive) | GI50 (MDA-MB-435): > 100 µM (inactive) | GI50 (HT-29): > 100 µM (inactive) | GI50 (NCI-H522): > 100 µM (inactive) | GI50 (SF-268): > 100 µM (inactive) | GI50 (Hs-578T): 49.7 µM (inactive) | GI50 (LOX IMVI): > 100 µM (inactive) | GI50 (786-0): > 100 µM (inactive) | GI50 (SK-MEL-2): > 100 µM (inactive) | GI50 (HCT-15): > 100 µM | GI50 (SNB-19): > 100 µM (inactive) | GI50 (OVCAR-4): > 100 µM (inactive)

C/C(=N\NC(=S)N/N=C(\C)c1ccccn1)c1ccccn1
GI50 (IGROV-1): 4.28 µM (inactive) | GI50 (OVCAR-8): 1.05 µM (active) | GI50 (U-251): 0.771 µM (active) | GI50 (SW-620): 1.75 µM (inactive) | GI50 (M14): 1.27 µM (inactive) | GI50 (RPMI-8226): 2.54 µM (inactive) | GI50 (MDA-MB-231): 21.5 µM (inactive) | GI50 (MDA-MB-435): 6.9 µM (inactive) | GI50 (HT-29): 0.575 µM (active) | GI50 (NCI-H522): 6.49 µM (inactive) | GI50 (SF-268): 0.817 µM (active) | GI50 (Hs-578T): 31.8 µM (inactive) | GI50 (LOX IMVI): 0.859 µM (active) | GI50 (786-0): 2.07 µM (inactive) | GI50 (HCT-15): 0.627 µM | GI50 (SNB-19): 3.56 µM (inactive) | GI50 (OVCAR-4): 1.04 µM (active)

C1=C(CC2=C[P+](c3ccccc3)(c3ccccc3)C=C(c3ccccc3)O2)OC(c2ccccc2)=C[P+]1(c1ccccc1)c1ccccc1
GI50 (IGROV-1): 0.184 µM (active) | GI50 (OVCAR-8): 0.239 µM (active) | GI50 (U-251): 0.269 µM (active) | GI50 (SW-620): 0.367 µM (active) | GI50 (M14): 0.573 µM (active) | GI50 (RPMI-8226): 0.18 µM (active) | GI50 (MDA-MB-231): 0.313 µM (active) | GI50 (MDA-MB-435): 0.304 µM (active) | GI50 (HT-29): 0.358 µM (active) | GI50 (SF-268): 0.362 µM (active) | GI50 (Hs-578T): 0.241 µM (active) | GI50 (LOX IMVI): 0.431 µM (active) | GI50 (786-0): 0.684 µM (active) | GI50 (HCT-15): 1.63 µM | GI50 (SNB-19): 0.328 µM (active)

O=C(O)CCC(=O)c1ccc[nH]1
GI50 (IGROV-1): > 100 µM (inactive) | GI50 (OVCAR-8): > 100 µM (inactive) | GI50 (RXF 393): > 100 µM (inactive) | GI50 (U-251): > 100 µM (inactive) | GI50 (M14): > 100 µM (inactive) | GI50 (RPMI-8226): > 100 µM (inactive) | GI50 (MDA-MB-231): > 100 µM (inactive) | GI50 (MDA-MB-435): > 100 µM (inactive) | GI50 (HT-29): > 100 µM (inactive) | GI50 (NCI-H522): > 100 µM (inactive) | GI50 (SF-268): > 100 µM (inactive) | GI50 (Hs-578T): > 100 µM (inactive) | GI50 (LOX IMVI): > 100 µM (inactive) | GI50 (786-0): > 100 µM (inactive) | GI50 (SK-MEL-2): > 100 µM (inactive) | GI50 (HCT-15): > 100 µM | GI50 (SNB-19): > 100 µM (inactive) | GI50 (OVCAR-4): > 100 µM (inactive)

CCCC(CCC(N)=O)(CCC(N)=O)[N+](=O)[O-]
GI50 (IGROV-1): > 100 µM (inactive) | GI50 (OVCAR-8): > 100 µM (inactive) | GI50 (RXF 393): 69.3 µM (inactive) | GI50 (U-251): > 100 µM (inactive) | GI50 (SW-620): > 100 µM (inactive) | GI50 (M14): > 100 µM (inactive) | GI50 (RPMI-8226): > 100 µM (inactive) | GI50 (MDA-MB-231): > 100 µM (inactive) | GI50 (MDA-MB-435): > 100 µM (inactive) | GI50 (HT-29): > 100 µM (inactive) | GI50 (NCI-H522): 26.5 µM (inactive) | GI50 (SF-268): > 100 µM (inactive) | GI50 (Hs-578T): > 100 µM (inactive) | GI50 (786-0): > 100 µM (inactive) | GI50 (SK-MEL-2): > 100 µM (inactive) | GI50 (HCT-15): > 100 µM | GI50 (SNB-19): > 100 µM (inactive)

CNC(=O)N1CCN(C(=O)NC)CCN(C(=O)NC)CC1
GI50 (IGROV-1): > 100 µM (inactive) | GI50 (OVCAR-8): > 100 µM (inactive) | GI50 (RXF 393): > 100 µM (inactive) | GI50 (U-251): > 100 µM (inactive) | GI50 (SW-620): > 100 µM (inactive) | GI50 (M14): > 100 µM (inactive) | GI50 (RPMI-8226): > 100 µM (inactive) | GI50 (MDA-MB-231): > 100 µM (inactive) | GI50 (HT-29): > 100 µM (inactive) | GI50 (NCI-H522): > 100 µM (inactive) | GI50 (SF-268): > 100 µM (inactive) | GI50 (Hs-578T): > 100 µM (inactive) | GI50 (LOX IMVI): > 100 µM (inactive) | GI50 (786-0): > 100 µM (inactive) | GI50 (SK-MEL-2): > 100 µM (inactive) | GI50 (HCT-15): > 100 µM | GI50 (HCC 2998): > 100 µM (inactive) | GI50 (SNB-19): > 100 µM (inactive)

Reference: ChEMBL document CHEMBL1201862, “PubChem BioAssay data set” (2004)
